This note sets out measurements from ChEMBL document CHEMBL3638995, “Disubstituted 3,4-diamino-3-cyclobutene-1,2-dione compounds for use in the treatment of chemokine-mediated pathologies” (2015).

For experiment [1], the target named is T1, C-X-C chemokine receptor type 1 (Homo sapiens, UniProt P25024).
T1 sequence (P25024 whole entry): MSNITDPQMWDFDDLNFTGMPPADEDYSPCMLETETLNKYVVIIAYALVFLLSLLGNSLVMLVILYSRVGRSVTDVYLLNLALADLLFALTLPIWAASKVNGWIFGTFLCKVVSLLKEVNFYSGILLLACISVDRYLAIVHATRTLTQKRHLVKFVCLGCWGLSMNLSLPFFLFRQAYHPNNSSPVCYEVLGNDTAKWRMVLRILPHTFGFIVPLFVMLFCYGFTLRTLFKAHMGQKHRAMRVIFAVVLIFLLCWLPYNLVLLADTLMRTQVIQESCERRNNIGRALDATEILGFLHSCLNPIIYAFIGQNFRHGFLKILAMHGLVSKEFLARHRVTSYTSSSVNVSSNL
Description: (§1) Assay Drug Dev Technol. 2007 February; 5(1); 137-44). It is filed as cell-based.

In experiment [2] the target is T2, C-X-C chemokine receptor type 2 (Homo sapiens, UniProt P25025).
T2 sequence (P25025 whole entry): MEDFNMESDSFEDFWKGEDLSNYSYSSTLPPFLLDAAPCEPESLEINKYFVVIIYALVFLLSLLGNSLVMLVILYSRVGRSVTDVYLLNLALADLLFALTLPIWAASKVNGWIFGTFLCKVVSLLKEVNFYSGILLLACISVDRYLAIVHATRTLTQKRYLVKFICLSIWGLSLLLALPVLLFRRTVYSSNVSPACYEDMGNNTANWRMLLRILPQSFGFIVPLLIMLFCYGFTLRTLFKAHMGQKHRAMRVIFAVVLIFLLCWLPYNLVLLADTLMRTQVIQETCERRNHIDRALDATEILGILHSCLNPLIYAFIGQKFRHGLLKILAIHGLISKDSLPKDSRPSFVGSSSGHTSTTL
Described as §1. It is filed as cell-based.

`Cc1ccc([C@H](Nc2c(Nc3csc(C(=O)N(C)C)c3O)c(=O)c2=O)C2(C)COC2)o1`: the IC50 in experiment [1] is 3900 nM; in experiment [2] it was 96 nM.

For `Cc1ccc(C(Nc2c(Nc3cccc(C(=O)N(C)C)c3O)c(=O)c2=O)C2(C)COC2)s1` (stereo unspecified), the IC50 came to 3030 nM in experiment [1] and 146 nM in experiment [2].

Take `Cc1ccc([C@H](Nc2c(Nc3cccc(C(=O)N(C)C)c3O)c(=O)c2=O)C2(C)COC2)o1`: the IC50 was 312 nM in experiment [1] and 72 nM in experiment [2].

What is called IC50 is the concentration that inhibits the measured activity by half. Read a low IC50 as greater potency in that assay.
